{"source": "patent US8975275B2", "about": "“Use of chemotherapeutic agents” (priority 1999, dated 2015)", "assay_type_in_all_cases": "in vivo, human", "key": {"[1]": {"system": "pulpitis due to carious diseases", "assay": "Topical treatment of pulpitis due to carious diseases (patient cases)", "excerpt": "This is of great importance because, for example in the case of caries profunda, it is always necessary to decide whether softened residual dentin can be left over the pulp. By virtue of complete elimination of the microbes present, there is now a novel method of treatment wherein a thin softened dentin covering can be left if the compounds of formula (I) or formula (II) are used. This method of treatment makes it possible to free infected dentin layers of microbes and to stop pulp infections. This means that pain reactions are eliminated and pulp infections are to a certain extent cured. The pulp remains vital. The topical application of the compounds of formula (I) or formula (II) followed the removal of the carious dentin. The compounds of formula (I) or formula (II) were applied for example in aqueous solution, in a form of gelatinous consistency or on an inert carrier, for example by means of a cotton wool plug. The overlying cavity was occluded with a cement to seal the margins. The cotton wool plug was left in the cavity for three to six days. The compounds of formula (I) or formula (II) can be used in concentrations of 0.005 mg/ml to 200 mg/ml, Preferred concentrations are those ranging from 0.5 mg/ml to 150 mg/ml and particularly preferred concentrations are those ranging from 10 to 100 mg/ml."}, "osseomucosal wounds": {"system": "osseomucosal wounds", "assay": "Topical treatment of osseomucosal wounds (patient cases)", "excerpt": "Application is effected by flushing and/or by means of strip inserts impregnated with compounds of formula (I) or formula (II). They are to be used for example for postoperative infections following dentosurgical interventions (extractions). For this purpose the gel containing the compound of formula (I) or formula (II) is syringed directly into the extraction wound or onto a collagen sponge which remains in the extraction wound. The wound is closed for about half an hour by biting on a tampon. Prophylactic applications have been particularly successful after the extraction of teeth with focal infections, Liquid forms of administration suitable for flushing fistulae are those containing the compounds of formula (I) or formula (II) in concentrations of 0.005 mg/ml to 250 mg/ml. Preferred concentrations are those ranging from 0.5 to 100 mg/ml, Forms suitable for coating strips are gels containing the compounds of formula (I) or formula (II), as well as aqueous solutions or suspensions. These applications can contain the compounds of formula (I) or formula (II) in concentrations of 0.005 mg/ml to 200 mg/ml. Preferred concentrations for solutions are those ranging from 0.1 to 50 mg/ml Gelatinous forms of administration in concentrations of 25-150 mg/ml are preferred in the case of strip inserts."}, "dentin wounds": {"system": "dentin wounds", "assay": "Prophylaxis of dentin wounds (patient cases)", "excerpt": "For this reason, after removal of the carious regions, the compounds of formula (I) or formula (II) are applied to the prepared cavities and rubbed in. Said compounds are applied in the form of solutions, gels or suspensions to form a local depot with an antibiotic action before the reliner is placed on and/or in the fundament of the inlays, onlays, crowns or bridges. […] A further advantage is that the tubule structure is not modified or denatured here, as is frequently the case with the current procedures using dentin protecting agents and impregnating agents. The microbe-free conditions achieved in this way have a permanent beneficial effect on prosthetic procedures since dentin hypersensitivities and subsequently secondary caries are effectively avoided.\nThe application of the compounds of formula (I) or formula (II) can either replace or complement the disinfecting treatment with hydrogen peroxide. The compounds of formula (I) or formula (II) can be applied in dissolved form or as a gel, optionally in the presence of solubilizers to promote a deep penetration of the chemotherapeutic agents into the dentinal tubules. Gels are used in the provisional care of dentin wounds and solutions are preferably used before the definitive fixing of e.g. crowns and bridges. The solutions or gels of the chemotherapeutic agents used are applied to the prepared dentin surfaces and gently rubbed in. Residues are then removed, for example with a cotton wool swab or air jet. Inlays, onlays, crowns or bridges can then be fixed. The compounds of formula (I) or formula (II) can be used in concentrations of 0.005 mg/ml to 200 mg/ml. Preferred concentrations are those ranging from 0.5 mg/ml to 150 mg/ml and particularly preferred concentrations are those ranging from 10 to 100 mg/ml."}}, "note": "Where a name gives a salt, the structure may show the parent alone."}
{"smiles": "COc1c(N2C[C@@H]3CCCN[C@@H]3C2)c(F)cc2c(=O)c(C(=O)O)cn(C3CC3)c12", "note": "[moxifloxacin hydrochloride, 1-cyclopropyl-6-fluoro-1,4-dihydro-8-methoxy-7-[(4aS,7aS)-octahydro-6H-pyrrolo[3,4-b]pyridin-6-yl]-4-oxo-3-quinolinecarboxylic acid]", "values": [{"measurement": "clinical finding at check-up", "setting": "[1]; Patient A 1.1, gel 25 mg/ml, after final filling, check-up after 3 weeks", "result": "tooth vital, patient symptom-free"}, {"measurement": "clinical finding at check-up", "setting": "[1]; Patient A 1.10, teeth 16, 17, 27, 36, 37, 46 occlusal caries, pellet inserts gel 50 mg/ml, check-up after 14 days", "result": "patient symptom-free, teeth vital"}, {"measurement": "clinical finding at check-up", "setting": "[1]; Patient A 1.1, tooth 24 carious defect, pellet insert gel 25 mg/ml, check-up after 4 days", "result": "patient was symptom-free"}, {"measurement": "clinical finding at check-up", "setting": "[1]; Patient A 1.2, gel 50 mg/ml, after final filling, check-up after 14 days", "result": "teeth vital, patient symptom-free"}, {"measurement": "clinical finding at check-up", "setting": "[1]; Patient A 1.2, teeth 11, 13 carious defects, pellet inserts gel 50 mg/ml, check-up after 1 week", "result": "teeth 11 and 13 symptom-free"}, {"measurement": "clinical finding at check-up", "setting": "[1]; Patient A 1.3, gel 25 mg/ml, repetition of insert, check-up after 3 days", "result": "tooth vital, patient symptom-free"}, {"measurement": "clinical finding at check-up", "setting": "[1]; Patient A 1.3, tooth 24 carious defect, pellet insert gel 25 mg/ml, check-up after one week", "result": "still slight discomfort of unknown origin"}, {"measurement": "clinical finding at check-up", "setting": "[1]; Patient A 1.4, major mesial carious defect, night pain, pellet inserts gel 50 mg/ml, check-up after 7 days", "result": "patient symptom-free, tooth vital"}, {"measurement": "clinical finding at check-up", "setting": "[1]; Patient A 1.5, tooth 13 weakly vital, night pain, pellet insert gel 50 mg/ml, check-up after 4 days", "result": "patient symptom-free, tooth vital"}, {"measurement": "clinical finding at check-up", "setting": "[1]; Patient A 1.6, gel 50 mg/ml, repetition of insert, check-up after 7 days", "result": "patient symptom-free, tooth vital"}, {"measurement": "clinical finding at check-up", "setting": "[1]; Patient A 1.6, tooth 36 reduced vitality, pellet insert gel 50 mg/ml, check-up after 6 days", "result": "still slight sensitivity to heat and cold"}, {"measurement": "clinical finding at check-up", "setting": "[1]; Patient A 1.7, tooth 44 reduced vitality, pellet inserts gel 50 mg/ml, check-up after 4 days", "result": "patient symptom-free"}, {"measurement": "clinical finding at check-up", "setting": "[1]; Patient A 1.8, tooth 36 reduced vitality, pellet insert gel 50 mg/ml, check-up after 3 weeks", "result": "patient symptom-free, tooth vital"}, {"measurement": "clinical finding at check-up", "setting": "[1]; Patient A 1.9, tooth 27, pellet insert gel 25 mg/ml, check-up after 7 days", "result": "patient symptom-free, tooth vital"}, {"measurement": "clinical finding at check-up", "setting": "osseomucosal wounds; Patient C 1, wound care after extraction, depot of gel 50 mg/ml by gauze strip, check-up after 3 days", "result": "patient symptom-free, good wound margin adaptation"}, {"measurement": "clinical finding at check-up", "setting": "osseomucosal wounds; Patient C 2, regio 36 fistulation, incision, flushing solution 50 mg/ml + strip insert gel 50 mg/ml, check-up after 3 days", "result": "patient symptom-free, good rapid healing process"}, {"measurement": "clinical finding at check-up", "setting": "osseomucosal wounds; Patient C 3, teeth 26 and 46 apical granulomas, extraction (osteotomy), gauze with gel 50 mg/ml, check-up after 2 days", "result": "patient symptom-free"}, {"measurement": "clinical finding at check-up", "setting": "osseomucosal wounds; Patient C 4, gauze with gel 50 mg/ml, check-up after one week", "result": "good wound margin adaptation, patient symptom-free"}, {"measurement": "clinical finding at check-up", "setting": "osseomucosal wounds; Patient C 4, tooth 48 osteotomy, gauze with gel 50 mg/ml, check-up after 2 days", "result": "slight wound pain, no postoperative oedema"}, {"measurement": "clinical finding at check-up", "setting": "osseomucosal wounds; Patient C 5, after root canal filling, check-up after 3 weeks", "result": "patient symptom-free"}, {"measurement": "clinical finding at check-up", "setting": "osseomucosal wounds; Patient C 5, tooth 34 pulpitis purulenta, fistulation, flushing solution 50 mg/ml + canal insert and gauze insert gel 50 mg/ml, check-up after 3 days", "result": "good healing process, patient symptom-free"}, {"measurement": "clinical finding at check-up", "setting": "osseomucosal wounds; Patient C 6, tooth 36 wound care after extraction, depot of gel 50 mg/ml by gauze strips, check-up after 3 days", "result": "patient symptom-free, good wound margin adaptation"}, {"measurement": "clinical finding at check-up", "setting": "osseomucosal wounds; Patient C 7, tooth 22 root tip resection due to cyst, strip insert gel 50 mg/ml, check-up after 3 days", "result": "patient symptom-free, good healing process"}, {"measurement": "clinical finding at check-up", "setting": "osseomucosal wounds; Patient C 9, same combined treatment, after root canal filling, check-up after 2 weeks", "result": "patient symptom-free"}, {"measurement": "clinical finding at check-up", "setting": "osseomucosal wounds; Patient C 9, tooth 14 pulpitis purulenta, fistulation, moxifloxacin hydrochloride solution 25 mg/ml flushing + grepafloxacin gel 25 mg/ml canal insert + moxifloxacin hydrochloride gel 25 mg/ml gauze insert, check-up after 6 days", "result": "patient symptom-free"}, {"measurement": "clinical finding at check-up", "setting": "dentin wounds; Patient A 2.1, teeth 33 and 36 prepared for bridge, solution 25 mg/ml to cavity, check-up after 3 weeks", "result": "patient symptom-free"}, {"measurement": "clinical finding at check-up", "setting": "dentin wounds; Patient A 2.2, solution 50 mg/ml, after final filling, check-up after 4 weeks", "result": "teeth vital, patient symptom-free"}, {"measurement": "clinical finding at check-up", "setting": "dentin wounds; Patient A 2.2, teeth 22, 23, 24, smear with solution 50 mg/ml, check-up after 2 weeks", "result": "teeth symptom-free"}, {"measurement": "clinical finding at check-up", "setting": "dentin wounds; Patient A 2.3, teeth 14-17 cervical erosions, smear with solution 50 mg/m, check-up after 3 weeks", "result": "patient symptom-free"}, {"measurement": "clinical finding at check-up", "setting": "dentin wounds; Patient A 2.4, teeth 11, 12, 21, 22 prepared for crowns, smear with solution 25 mg/ml, check-up after 3 weeks", "result": "patient symptom-free"}, {"measurement": "clinical finding at check-up", "setting": "dentin wounds; Patient A 2.5, tooth 44, smear with solution 25 mg/ml, check-up after 9 days", "result": "patient symptom-free"}]}
